Experimental data as given in patent US10894784B2, “Heteroarylbenzimidazole compounds” (BAYER PHARMA AKTIENGESELLSCHAFT, priority 2015, dated 2021).

Target: TBK1 (Homo sapiens (Human), UniProt Q9UHD2)
Test: TBK1 low ATP kinase assay (in vitro assay 1)
Format: biochemical
Settings: in vitro assay 1, read-out: TBK1 low ATP kinase assay IC50

Chain of TBK1 (Q9UHD2 whole entry): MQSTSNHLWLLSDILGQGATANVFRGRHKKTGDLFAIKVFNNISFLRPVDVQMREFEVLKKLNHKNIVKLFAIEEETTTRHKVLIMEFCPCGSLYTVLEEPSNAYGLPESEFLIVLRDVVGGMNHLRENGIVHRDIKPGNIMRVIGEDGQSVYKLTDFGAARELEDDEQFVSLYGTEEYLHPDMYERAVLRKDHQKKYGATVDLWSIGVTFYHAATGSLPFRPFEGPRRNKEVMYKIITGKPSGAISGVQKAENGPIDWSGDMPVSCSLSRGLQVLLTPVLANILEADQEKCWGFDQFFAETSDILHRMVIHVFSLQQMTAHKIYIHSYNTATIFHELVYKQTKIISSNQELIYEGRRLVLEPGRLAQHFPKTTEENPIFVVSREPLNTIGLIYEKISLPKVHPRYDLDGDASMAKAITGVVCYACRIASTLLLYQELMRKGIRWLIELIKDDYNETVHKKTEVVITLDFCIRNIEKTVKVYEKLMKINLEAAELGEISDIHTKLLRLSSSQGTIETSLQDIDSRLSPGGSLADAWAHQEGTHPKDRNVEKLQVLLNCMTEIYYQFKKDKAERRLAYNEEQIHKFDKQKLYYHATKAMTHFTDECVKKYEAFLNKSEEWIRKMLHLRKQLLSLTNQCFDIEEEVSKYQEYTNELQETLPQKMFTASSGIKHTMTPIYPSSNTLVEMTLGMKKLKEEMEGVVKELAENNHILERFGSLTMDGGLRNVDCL

Structure (SMILES) | IC50 [nM]
CC(C)(C)OC(=O)N1CCN(Cc2ccnc(Nc3nc4ccc(-c5cnc(Br)cn5)cc4[nH]3)c2)CC1 [Example 140.01, tert-butyl 4-[(2-{[6-(5-bromopyrazin-2-yl)-1H-benzimidazol-2-yl]amino}pyridin-4-yl)methyl]piperazine-1-carboxylate] | 13
Cc1cc(-c2ccc3nc(Nc4cc(C(C)N5CCN(C(=O)C6CC6)CC5)ccn4)[nH]c3c2Cl)ncn1 (stereo not drawn) [Example 98.03, {4-[(1R or IS)-1-(2-{[7-chloro-6-(6-methylpyrimidin-4-yl)-1H-benzimidazol-2-yl]amino}pyridin-4-yl)ethyl]piperazin-1-yl}(cyclopropyl)methanone] | 76
O=C(C1CC1)N1CCN(Cc2ccnc(Nc3nc4ccc(-c5cc(NC6CCC6)ncn5)cc4[nH]3)c2)CC1 [Example 152.03, (4-{[2-({6-[6-(cyclobutylamino)pyrimidin-4-yl]-1H-benzimidazol-2-yl}amino)pyridin-4-yl]methyl}piperazin-1-yl)(cyclopropyl)methanone] | 0.96
COc1cnc(Cl)nc1-c1ccc2nc(Nc3cc(CN4CCN(C(=O)OC(C)(C)C)CC4)ccn3)[nH]c2c1 [Example 63.01.01, tert-butyl 4-[(2-{[6-(2-chloro-5-methoxypyrimidin-4-yl)-1H-benzimidazol-2-yl]amino}pyridin-4-yl)methyl]piperazine-1-carboxylate] | 36.4
CC(c1ccnc(Nc2nc3ccc(-c4cnn(CC(F)F)c4)cc3[nH]2)c1)N1CCN(C(=O)CC(F)(F)F)CC1 (single isomer, unassigned) [Example 87.01, 1-(4-{(1R or 1S)-1-[2-({6-[1-(2,2-difluoroethyl)-1H-pyrazol-4-yl]-1H-benzimidazol-2-yl}amino)pyridin-4-yl]ethyl}piperazin-1-yl)-3,3,3-trifluoropropan-1-one] | 2.3
COc1c(OCC2CC2)ncnc1-c1ccc2nc(Nc3cc(CN4CCN(C(=O)OC(C)(C)C)CC4)ccn3)[nH]c2c1 [Example 65.01.01, tert-butyl 4-{[2-({6-[6-(cyclopropylmethoxy)-5-methoxypyrimidin-4-yl]-1H-benzimidazol-2-yl}amino)pyridin-4-yl]methyl}piperazine-1-carboxylate] | 255
CCc1cc(-c2ccc3nc(Nc4cc(CN5CCN(C(=O)CC(F)(F)F)CC5)ccn4)[nH]c3c2)ncn1 [Example 91.02, 1-{4-[(2-{[6-(6-ethylpyrimidin-4-yl)-1H-benzimidazol-2-yl]amino}pyridin-4-yl)methyl]piperazin-1-yl}-3,3,3-trifluoropropan-1-one] | 12
COc1cnc(C)cc1-c1ccc2nc(Nc3cc(CN4CCN(C(=O)C5CCC5)CC4)ccn3)[nH]c2c1 [Example 07.03, cyclobutyl{4-[(2-{[6-(5-methoxy-2-methylpyridin-4-yl)-1H-benzimidazol-2-yl]amino}pyridin-4-yl)methyl]piperazin-1-yl}methanone] | 384
Cc1noc(-c2ccc3nc(Nc4cc(CN5CCN(C(=O)C(C)(C)C)CC5)ccn4)[nH]c3c2)n1 [Example 16.01.06, 2,2-dimethyl-1-{4-[(2-{[6-(3-methyl-1,2,4-oxadiazol-5-yl)-1H-benzimidazol-2-yl]amino}pyridin-4-yl)methyl]piperazin-1-yl}propan-1-one] | 208
CC(C)(C)OC(=O)N1CCN(Cc2ccnc(Nc3nc4ccc(-c5cc(N6CCCCC6)ncn5)cc4[nH]3)c2)CC1 [Example 145.01, tert-butyl 4-{[2-({6-[6-(piperidin-1-yl)pyrimidin-4-yl]-1H-benzimidazol-2-yl}amino)pyridin-4-yl]methyl}piperazine-1-carboxylate] | 13
CC(c1ccnc(Nc2nc3ccc(-c4ccnn4C(C)C)cc3[nH]2)c1)N1CCN(C(=O)CC(F)(F)F)CC1 (single isomer, unassigned) [Example 72.02, 3,3,3-trifluoro-1-(4-{(1R or 1S)-1-[2-({6-[1-(propan-2-yl)-1H-pyrazol-5-yl]-1H-benzimidazol-2-yl}amino)pyridin-4-yl]ethyl}piperazin-1-yl)propan-1-one] | 250
CCN(CC)c1cc(-c2ccc3nc(Nc4cc(CN5CCN(C(=O)C6CC6)CC5)ccn4)[nH]c3c2)ncn1 [Example 155.03, cyclopropyl(4-{[2-({6-[6-(diethylamino)pyrimidin-4-yl]-1H-benzimidazol-2-yl}amino)pyridin-4-yl]methyl}piperazin-1-yl)methanone] | 17
CC(c1ccnc(Nc2nc3ccc(-c4cnn(C(C)C5CC5)c4)cc3[nH]2)c1)N1CCN(C(=O)OC(C)(C)C)CC1 (single isomer, unassigned) [Example 74.01, tert-butyl 4-[(1R or 1S)-1-{2-[(6-{1-[(1RS)-1-cyclopropylethyl]-1H-pyrazol-4-yl}-1H-benzimidazol-2-yl)amino]pyridin-4-yl}ethyl]piperazine-1-carboxylate] | 120
CC(c1ccnc(Nc2nc3ccc(-c4cnn(CC5CCCC5)c4)cc3[nH]2)c1)N1CCN(C(=O)OC(C)(C)C)CC1 (single isomer, unassigned) [Example 71.01, tert-butyl 4-{(1R or 1S)-1-[2-({6-[1-(cyclopentylmethyl)-1H-pyrazol-4-yl]-1H-benzimidazol-2-yl}amino)pyridin-4-yl]ethyl}piperazine-1-carboxylate] | 100
COc1c(-c2ccc3nc(Nc4cc(CN5CCN(C(=O)CC(F)(F)F)CC5)ccn4)[nH]c3c2)ncnc1N(C)CC1CC1 [Example 110.04, 1-[4-({2-[(6-{6-[(cyclopropylmethyl)(methyl)amino]-5-methoxypyrimidin-4-yl}-1H-benzimidazol-2-yl)amino]pyridin-4-yl}methyl)piperazin-1-yl]-3,3,3-trifluoropropan-1-one] | 62
COc1cncnc1-c1ccc2nc(Nc3cc(C(C)N4CCN(C(=O)CC5CC5)CC4)ccn3)[nH]c2c1 (single isomer, unassigned) [Example 35.03.02.B, 2-cyclopropyl-1-{4-[(1S or 1R)-1-(2-{[6-(5-methoxypyrimidin-4-yl)-1H-benzimidazol-2-yl]amino}pyridin-4-yl)ethyl]piperazin-1-yl}ethanone] | 32.8
CC(c1ccnc(Nc2nc3ccc(-c4ccncn4)cc3[nH]2)c1)N1CCN(C(=O)C2CCC2)CC1 (racemic) [Example 23.04.01, (rac)-cyclobutyl{4-[1-(2-{[6-(pyrimidin-4-yl)-1H-benzimidazol-2-yl]amino}pyridin-4-yl)ethyl]piperazin-1-yl}methanone] | 3.44
CN(C)c1cc(-c2ccc3nc(Nc4cc(CN5CCN(C(=O)C6CC6)CC5)ccn4)[nH]c3c2)ncn1 [Example 143.03, cyclopropyl(4-{[2-({6-[6-(dimethylamino)pyrimidin-4-yl]-1H-benzimidazol-2-yl}amino)pyridin-4-yl]methyl}piperazin-1-yl)methanone] | 4.8
CCN(CC)c1cc(-c2ccc3nc(Nc4cc(CN5CCN(C(=O)CC(F)(F)F)CC5)ccn4)[nH]c3c2)ncn1 [Example 155.02, 1-(4-{[2-({6-[6-(diethylamino)pyrimidin-4-yl]-1H-benzimidazol-2-yl}amino)pyridin-4-yl]methyl}piperazin-1-yl)-3,3,3-trifluoropropan-1-one] | 15
Cc1cncnc1-c1ccc2nc(Nc3cc(CN4CCN(C(=O)CC(F)(F)F)CC4)ccn3)[nH]c2c1 [Example 184.02, 3,3,3-trifluoro-1-{4-[(2-{[6-(5-methylpyrimidin-4-yl)-1H-benzimidazol-2-yl]amino}pyridin-4-yl)methyl]piperazin-1-yl}propan-1-one] | 201
CC(C)N(C)c1cc(-c2ccc3nc(Nc4cc(CN5CCN(C(=O)OC(C)(C)C)CC5)ccn4)[nH]c3c2)ncn1 [Example 153.01, tert-butyl 4-({2-[(6-{6-[methyl(propan-2-yl)amino]pyrimidin-4-yl}-1H-benzimidazol-2-yl)amino]pyridin-4-yl}methyl)piperazine-1-carboxylate] | 14
COc1ncccc1-c1ccc2nc(Nc3cc(CN4CCN(C(=O)CC5CC5)CC4)ccn3)[nH]c2c1 [Example 15.02, 2-cyclopropyl-1-{4-[(2-{[6-(2-methoxypyridin-3-yl)-1H-benzimidazol-2-yl]amino}pyridin-4-yl)methyl]piperazin-1-yl}ethanone] | 401
COc1cncnc1-c1ccc2nc(Nc3cc(CN4CCN(S(=O)(=O)CCC(F)(F)F)CC4)ccn3)[nH]c2c1 [Example 35.01.09, 6-(5-methoxypyrimidin-4-yl)-N-[4-({4-[(3,3,3-trifluoropropyl)sulfonyl]piperazin-1-yl}methyl)pyridin-2-yl]-1H-benzimidazol-2-amine] | 40.6
N#Cc1cnccc1-c1ccc2nc(Nc3cc(CN4CCN(C(=O)CC(F)(F)F)CC4)ccn3)[nH]c2c1 [Example 133.02, 4-{2-[(4-{[4-(3,3,3-trifluoropropanoyl)piperazin-1-yl]methyl}pyridin-2-yl)amino]-1H-benzimidazol-6-yl}pyridine-3-carbonitrile] | 140
Cc1noc(-c2ccc3nc(Nc4cc(C(C)N5CCN(C(=O)OC(C)(C)C)CC5)ccn4)[nH]c3c2)n1 (racemic) [Example 16.05.01, (rac)-tert-butyl 4-[1-(2-{[6-(3-methyl-1,2,4-oxadiazol-5-yl)-1H-benzimidazol-2-yl]amino}pyridin-4-yl)ethyl]piperazine-1-carboxylate] | 82.5
CN(C)c1cc(-c2ccc3nc(Nc4cc(CN5CCN(C(=O)CC(F)(F)F)CC5)ccn4)[nH]c3c2)ncn1 [Example 143.02, 1-(4-{[2-({6-[6-(dimethylamino)pyrimidin-4-yl]-1H-benzimidazol-2-yl}amino)pyridin-4-yl]methyl}piperazin-1-yl)-3,3,3-trifluoropropan-1-one] | 8.2
CC(c1ccnc(Nc2nc3ccc(-c4ccnn4C)cc3[nH]2)c1)N1CCN(C(=O)C2CC2)CC1 (single isomer, unassigned) [Example 123.03, cyclopropyl{4-[(1R or 1S)-1-(2-{[6-(1-methyl-1H-pyrazol-5-yl)-1H-benzimidazol-2-yl]amino}pyridin-4-yl)ethyl]piperazin-1-yl}methanone] | 26
